A word on the viability: it is a per cent measure of how many cells are alive, often set against a control. A high value points to less harm to the cells.

The nature of this data set: MTT assay of viability and metabolic activity of ex vivo human skin explants after topical application. Format: cell-based. The note with it: ex vivo human skin explants (5 mm); ex vivo human skin 5 mm explants, 48 hours post treatment, 37° C., compared to the untreated skin control, n=3. On the procedure: Sample 1 was tested to determine its toxicity and metabolic properties in comparison to a control and three commercial cleaning agents (irritants)— “SDS” (sodium dodecyl sulfate), Triton™ X-100, and Tween® 20. Human skin was obtained via post-surgical elective surgery under IRB protocol and prepared within 2 hours of surgery as 5 mm explants. The compositions were applied to the surface of the epidermis and incubated for 24 hours and 48 hours at 37° C. At each time point, explants were assessed for viability and metabolic activity via a MTT assay (n=3; mean+/−SEM), a colorimetric assay for assessing cell metabolic activity. […] The metabolic activity (viability) of tissues treated with Sample 1 remained above 50% at 48 hours post treatment compared to the untreated skin control, while those treated with Trition ° X-100 and SDS were <10% and are illustrated in the graph below that plots percent viability and time.

Turning to `CCCCCCCCCCCCOS(=O)(=O)[O-].[Na+]` [SDS, sodium dodecyl sulfate], the viability at 48 h was below 10%.
